Experimental data reported in PMC10815964, “Cyclobutanone Inhibitors of Diaminopimelate Desuccinylase (DapE) as Potential New Antibiotics” (International Journal of Molecular Sciences, 2024).

Assays:
HiDapE = HiDapE (Haemophilus influenzae, UniProt P44514); experiment: DapE inhibition, ninhydrin-based assay; format: biochemical; conditions: for inhibition at 100 µM: 100 µM inhibitor, read-out: DapE % Inhib at 100 µM
Protocol: All compounds were screened for DapE inhibitory potency using a ninhydrin-based assay at 100 μM, and IC50 values were determined for molecules that inhibited DapE > 70% at 100 μM (Table 1). Some SAR trends emerge from the data.
Experimental IC50 curves for cyclobutanone inhibitors against DapE were identified as sigmoidal shaped response curves, as opposed to simple hyperbolic plots. […] IC50 curves with the corresponding Hill coefficients are reported in the Supplementary Materials as Figures S74−S81. Experimental Hill coefficients may provide information on the number of binding sites of a biological target (receptors and enzymes) interacting with ligands.
The inhibition of HiDapE by potential inhibitors was assessed using the previously developed ninhydrin assay with slight modifications. It was performed in a PCR Thermal Cycler System. All experiments were performed in triplicate in 50 mM HEPES buffer at pH 7.5. Reaction volumes were 100 µL of 2 mM N^6-Methyl-L,L-SDAP and 8 nM HiDapE. Ninhydrin was purchased as a 2% solution in 100% DMSO/lithium acetate buffer at pH 5.2. The inhibitor, followed by HiDapE, was added to a 50 mM HEPES (pH 7.5) buffered solution at 30 °C, and the mixture was incubated at 30 °C for 10 min. N^6-Methyl-L,L-SDAP was added, and the reaction mixture was incubated at 30 °C for 10 min, then heated to 99 °C for 1 min, and further cooled to 0 °C for 1 min. The 2% ninhydrin solution (50 µL) was added, and the mixture was thoroughly mixed. The reaction mixture was heated to 80 °C for 15 min, then cooled to 0 °C for 1 min. The absorbance of an 80 μL aliquot was recorded at 570 nm on a BioTek Synergy 2 microplate reader. All the inhibition assays of HiDapE were performed in triplicate and the IC50 values were obtained by fitting the data following the modified Hill equation: V = V0 + (Vmax − V0) XnH/(XnH0.5 + XnH) using the graphing suite Origin 9.1 with the Levenberg–Marquardt non-linear least-squares algorithm. The velocity in the absence of the substrate is […]; the velocity at saturating concentrations of the substrate or with no inhibitor for the inhibition assay is Vmax; X is the concentration of the substrate or inhibitor; and X0.5 is the substrate (S0.5) and inhibitor (I0.5) concentration at 50% maximum velocity and at 50% inhibition, respectively. The Hill coefficient is represented as nH.

Chain of HiDapE (P44514 whole entry): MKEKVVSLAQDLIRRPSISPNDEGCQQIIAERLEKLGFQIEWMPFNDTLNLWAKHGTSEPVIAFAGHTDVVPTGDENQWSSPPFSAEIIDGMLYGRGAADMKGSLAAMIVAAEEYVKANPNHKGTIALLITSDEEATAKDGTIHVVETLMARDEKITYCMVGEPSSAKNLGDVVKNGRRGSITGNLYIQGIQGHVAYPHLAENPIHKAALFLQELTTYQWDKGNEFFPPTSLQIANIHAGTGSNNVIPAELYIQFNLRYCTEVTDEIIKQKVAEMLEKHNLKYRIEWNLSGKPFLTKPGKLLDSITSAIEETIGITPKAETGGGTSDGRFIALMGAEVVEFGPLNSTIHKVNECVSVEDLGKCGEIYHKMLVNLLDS

inhibition at 100 µM (HiDapE)	melting point	IC50 (HiDapE; ninhydrin assay)	Structure (SMILES)
27%	104 to 105 °C		COc1cccc(CC(=O)NC2CCC2=O)c1 (stereo not shown) [3s, 2-(3-Methoxyphenyl)-N-(2-oxocyclobutyl)acetamide]
59%	124 to 127 °C		O=C(Cc1ccc(Br)cc1)NC1CCC1=O (stereo not shown) [3t, 2-(4-Bromophenyl)-N-(2-oxocyclobutyl)acetamide]
84.7%	179 to 181 °C	52.4 ± 7.4 µM	O=C(CCc1nc2ccccc2[nH]1)NC1CCC1=O (stereo not shown) [3u]
